# From PubChem BioAssay (NCI)
#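 Five concentrations, 48 hours, 96-well plates. Abbreviation: GI50, concentration required for 50% inhibition of growth. Definition used: TGI = concentration required for complete inhibition of growth.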
# How the values were obtained:
# Experiment in all cases: NCI tumour cell line growth inhibition, 48 h
# [1] = tested on: OVCAR-4 ovarian
# [2] = tested on: MDA-MB-231 breast
# [3] = tested on: T-47D breast
# [4] = tested on: SF-539 CNS
# [5] = tested on: NCI/ADR-RES ovarian
# [6] = tested on: SK-MEL-2 melanoma
# [7] = tested on: NCI-H522 lung
# [8] = tested on: HS 578T breast
# [9] = tested on: RXF 393 renal
# [10] = tested on: SN12C renal
# [11] = tested on: A498 renal
# [12] = tested on: TK-10 renal
# [13] = tested on: 786-0 renal
# [14] = tested on: HOP-62 NSCLC
# [15] = tested on: MALME-3M melanoma
# [16] = tested on: HCC-2998 colon
# [17] = tested on: SK-MEL-28 melanoma
# [18] = tested on: IGROV1 ovarian
# [19] = tested on: SK-OV-3 ovarian
# [20] = tested on: HOP-92 NSCLC
# [21] = tested on: NCI-H226 lung
# [22] = tested on: BT-549 breast
# [23] = tested on: DU-145 prostate
# [24] = tested on: MCF7 breast
# [25] = tested on: SNB-19 CNS
# [26] = tested on: PC-3 prostate
# [27] = tested on: NCI-H23 lung
# [28] = tested on: OVCAR-5 ovarian
# [29] = tested on: SF-268 CNS
smiles,measurement,setting,value
Cc1nn(-c2ccccc2)c2c1[C@@H](C)[C@H]1CC3(CC4(C)C[C@@H]3C1(C)c1c(C)nn(-c3ccccc3)c1N4C)N2C (stereo partly drawn),GI50,[1],8.66 µM
same,TGI,[1],> 100 µM
same,GI50,[2],> 100 µM
same,TGI,[2],> 100 µM
same,GI50,[3],2.64 µM
same,TGI,[3],> 100 µM
same,GI50,[4],> 100 µM
same,TGI,[4],> 100 µM
same,GI50,[5],> 100 µM
same,TGI,[5],> 100 µM
same,GI50,[6],> 100 µM
same,TGI,[6],> 100 µM
same,GI50,[7],3.88 µM
same,TGI,[7],> 100 µM
same,GI50,[8],> 100 µM
same,TGI,[8],> 100 µM
same,GI50,[9],3.41 µM
same,TGI,[9],48.2 µM
same,GI50,[10],> 100 µM
same,TGI,[10],> 100 µM
same,GI50,[11],> 100 µM
same,TGI,[11],> 100 µM
same,GI50,[12],> 100 µM
same,TGI,[12],> 100 µM
same,GI50,[13],> 100 µM
same,TGI,[13],> 100 µM
same,GI50,[14],18.3 µM
same,TGI,[14],> 100 µM
same,GI50,[15],> 100 µM
same,TGI,[15],> 100 µM
same,GI50,[16],> 100 µM
same,TGI,[16],> 100 µM
same,GI50,[17],31.4 µM
same,TGI,[17],> 100 µM
same,GI50,[18],> 100 µM
same,TGI,[18],> 100 µM
same,GI50,[19],24.1 µM
same,TGI,[19],> 100 µM
same,GI50,[20],0.792 µM
same,TGI,[20],8.68 µM
same,GI50,[21],> 100 µM
same,TGI,[21],> 100 µM
same,GI50,[22],> 100 µM
same,TGI,[22],> 100 µM
same,GI50,[23],> 100 µM
same,TGI,[23],> 100 µM
same,GI50,[24],3.46 µM
same,TGI,[24],> 100 µM
same,GI50,[25],> 100 µM
same,TGI,[25],> 100 µM
same,GI50,[26],0.591 µM
same,TGI,[26],> 100 µM
same,GI50,[27],> 100 µM
same,TGI,[27],> 100 µM
same,GI50,[28],> 100 µM
same,TGI,[28],> 100 µM
same,GI50,[29],> 100 µM
same,TGI,[29],> 100 µM
